Source: PubChem BioAssay (NCI)
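Test compounds were applied to cells in 96-well plates for 48 hours at 5 doses. TGI: concentration producing complete growth inhibition.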

Columns and labels:
Experiment in all cases: NCI tumour cell line growth inhibition, 48 h
786-0 renal = test system: 786-0 renal
BT-549 breast = test system: BT-549 breast
DU-145 prostate = test system: DU-145 prostate
MDA-MB-435 = test system: MDA-MB-435
PC-3 prostate = test system: PC-3 prostate
DLD-1 colon = test system: DLD-1 colon
P388 leukemia = test system: P388 leukemia
P388/ADR leukemia = test system: P388/ADR leukemia
SN12K1 renal = test system: SN12K1 renal
SNB-78 CNS = test system: SNB-78 CNS
LXFL 529 NSCLC = test system: LXFL 529 NSCLC
RXF-631 renal = test system: RXF-631 renal

Row | SMILES | TGI (786-0 renal) [µM] | TGI (BT-549 breast) [µM] | TGI (DU-145 prostate) [µM] | TGI (MDA-MB-435) [µM] | TGI (PC-3 prostate) [µM] | TGI (DLD-1 colon) [µM] | TGI (P388 leukemia) [µM] | TGI (P388/ADR leukemia) [µM] | TGI (SN12K1 renal) [µM] | TGI (SNB-78 CNS) [µM] | TGI (LXFL 529 NSCLC) [µM] | TGI (RXF-631 renal) [µM]
1 | O=P(O)(O)CCP(=O)(O)O | > 100 | > 100 | > 100 | > 100 | > 100 | – | – | – | – | – | – | –
2 | NC(CCCCCP(=O)(c1ccccc1)C1C=CC=CC1)C(=O)O (centres undefined) | – | > 100 | > 100 | > 100 | > 100 | – | – | – | – | – | – | –
3 | CCCC(=O)OCC1OC(n2ccc(N)nc2=O)C(OC(=O)CCC)C1OC(=O)CCC (centres undefined) | – | – | – | – | – | > 100 | 13.9 | > 100 | > 100 | > 100 | – | –
4 | CC(=O)OC1/C=C(\C)C(OC(C)=O)C/C=C(/C)CCC2C(/C=C/C1=O)C2(C)C (centres undefined) | – | – | – | – | – | > 100 | – | – | – | > 100 | > 100 | > 100
5 | CCN(CC)CCNc1ccc2nnn3c4ccc(OCCN(CC)CC)cc4c(=O)c1c23 | > 100 | > 100 | > 100 | > 100 | – | – | – | – | – | – | – | –
6 | COc1ccc(/C=C2\CCNC2=O)cc1 | – | – | – | – | – | > 100 | > 100 | > 100 | > 100 | > 100 | – | –
7 | C=CCc1c(O)c2c(c3oc(=O)cc(C)c13)CC(C)O2 (centres undefined) | – | – | – | – | – | > 100 | – | – | – | > 100 | > 100 | –
8 | CC(C)Cc1ccc(C(C)C(=O)N2CCN(/C=C/c3ccccc3)CC2)cc1 (centres undefined) | – | – | – | – | – | 27.3 | 29.8 | 42.1 | 27.1 | 46.7 | – | –
9 | CCOc1ncn(-c2ccc(NC(=S)Nc3ncccn3)cc2)n1 | – | 71.1 | > 100 | > 100 | > 100 | – | – | – | – | – | – | –
